Source: patent US12384786B2 (MINGHUI PHARMACEUTICAL (SHANGHAI) LIMITED, priority 2019, dated 2025)
“Also recorded” adds a separate entry of the source.

Assays:
[1] = biological target: Full-length human BTK; experiment: BTK inhibitory activity, Reaction Biology Corporation kinase assay; conditions: read-out: IC50 of standard; standard in BTK/BTK (C481S) assay, ATP 10 μM
[2] = tested on: subcutaneous xenograft TMD8 tumor; experiment: Subcutaneous transplantation tumor model of TMD8 cells in NOD/SCID mice; assay type: in vivo; conditions: for inhibitory effect on growth of subcutaneous transplanted TMD8 tumor / anti-tumor effect: orally 30 mg/kg once a day or 10→5 mg/kg twice a day; for tumor growth inhibition rate (TGI): after 22 days of administration
Method: In the subcutaneous transplantation tumor model of human diffuse large B lymphoma TMD8 cells in NOD/SCID mice, the inhibitory effect of example 1 on tumor growth was tested. Tumor growth and animal body weight were presented in FIG. 1 and FIG. 2 as followed. […] Therefore, the dose was adjusted to 5 mg/kg and continued to administrate for 14 days.

[3] = tested on: TMD8 cells (Human diffuse large B lymphoma cells); experiment: CellTiter-Glo TMD8 inhibitory activity; assay type: cell-based; conditions: cultured in vitro
Description: CellTiter-Glo kit was used to test the TMD8 inhibitory activity of compounds of examples on Human diffuse large B lymphoma cells cultured in vitro. IC50 values were shown below.

[4] = biological target: Full-length human BTK (C481S) (Homo sapiens (Human), UniProt Q06187, C481S); experiment: BTK (C481S) inhibitory activity, Reaction Biology Corporation kinase assay; conditions: read-out: IC50(nM) BTK(C481S); (b) ATP concentration 100 μM
[5] = biological target: Full-length human BTK (Homo sapiens (Human), UniProt Q06187); experiment: BTK inhibitory activity, Reaction Biology Corporation kinase assay
Full-length human BTK (Homo sapiens (Human), UniProt Q06187), sequence (Q06187 whole entry): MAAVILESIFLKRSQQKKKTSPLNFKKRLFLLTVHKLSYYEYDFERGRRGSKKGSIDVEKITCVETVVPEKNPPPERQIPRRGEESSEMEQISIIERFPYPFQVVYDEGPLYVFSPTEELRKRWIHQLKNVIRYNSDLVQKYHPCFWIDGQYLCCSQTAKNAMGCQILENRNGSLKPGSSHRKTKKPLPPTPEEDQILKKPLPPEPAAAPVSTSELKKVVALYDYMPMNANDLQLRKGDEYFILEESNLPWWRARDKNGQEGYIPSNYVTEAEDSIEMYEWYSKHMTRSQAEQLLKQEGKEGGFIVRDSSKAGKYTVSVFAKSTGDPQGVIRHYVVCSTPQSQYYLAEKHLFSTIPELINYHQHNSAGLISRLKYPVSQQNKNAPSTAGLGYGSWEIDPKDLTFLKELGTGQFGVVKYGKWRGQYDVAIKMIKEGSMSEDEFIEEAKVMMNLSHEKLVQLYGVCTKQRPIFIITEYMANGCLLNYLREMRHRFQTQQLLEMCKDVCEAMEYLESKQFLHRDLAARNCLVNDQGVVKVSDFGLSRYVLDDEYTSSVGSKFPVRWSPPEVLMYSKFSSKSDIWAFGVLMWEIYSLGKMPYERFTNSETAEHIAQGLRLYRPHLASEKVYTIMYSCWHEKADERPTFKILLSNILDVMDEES

Full-length human BTK (C481S), sequence (Q06187 whole entry C481S): as the sequence (Q06187 whole entry) above, with C481S counted along it

IC50 [3] [nM]	IC50 [4] [nM]	inhibition at 0.005 µM ([5]; read-out: BTK inhibitory rate(%)) [%]	IC50 ([5]; read-out: IC50(nM) BTK, (b) ATP concentration 100 μM) [nM]	SMILES	IC50 [1] [nM]	animal body weight ([2]; 10 mg/kg orally twice a day for 8 successive days)	effect on animal body weight ([2]; 30 mg/kg orally once a day)	influence on the body weight of animals ([2]; during administration, treatment groups overall)	inhibitory effect on growth of subcutaneous transplanted TMD8 tumor / anti-tumor effect [2]	inhibitory effect on growth of subcutaneous transplanted TMD8 tumor / anti-tumor effect ([2]; listed as example 1)	tumor growth inhibition rate (TGI) ([2]; orally once a day at 30 mg/kg) [%]	tumor growth inhibition rate (TGI) ([2]; orally twice a day at 10→5 mg/kg) [%]
				CN[C@@H]1C[C@H]2O[C@@](C)([C@@H]1OC)n1c3ccccc3c3c4c(c5c6ccccc6n2c5c31)C(=O)NC4 [Starsporin, reference compound]	3.94							
20	3.4	60	8.1	Nc1ncnc2c1c(-c1ccc(Oc3ccccc3)cc1)nn2[C@@H]1CCC[C@@H](O)C1 [Example 1, (1R,3R)-3-(4-amino-3-(4-phenoxyphenyl)-1h-pyrazole[3,4-d]pyrimidin-1-yl)cyclohex-1-ol]		decreased slightly	no significant effect	without showing obvious influence	obvious inhibitory effect	significant anti-tumor effect; also recorded: significantly inhibited the growth of tumor	49.6	52.7
